# Source: patent US20240376547A1, “ONCOLOGIC VARIATIONS ASSOCIATED WITH CANCER AND METHODS OF TREATMENT” (LINNAEUS THERAPEUTICS, INC., priority 2021, published 2024)
# “Also recorded” adds a separate entry of the source.
# Experiments:
# [1] = test system: Crizotinib resistant EML4-ALK A549 NSCLC cells; assay: CCK-8 proliferation assay of Crizotinib naive or resistant EML4-ALK A549 NSCLC cells; format: cell-based; settings: 4 days treatment, normalized to 0 nM control
# Experimental: (§1) Cells were treated with an array of % dilutions of LNS8801 for 4 days with 4 technical replicates for each condition (500 nM, 250 nM, 125 nM, 62.5 nM, 31.25 nM, 15.63 nM, 7.81 nM, 3.91 nM, 1.95 nM, 0.98 nM and 0 nM). After 4 days, relative viable cells were determined by incubating cells with CCK-8 proliferation dye for 1 hour, and measuring absorbance at 450 nm. Relative cell numbers were calculated by subtracting baseline absorbance of the media followed by normalization to the 0 nM treated control wells.
# After 4 days, relative viable cells were determined by incubating cells with CCK-8 proliferation dye for 1 hour, and measuring absorbance at 450 nm. Relative cell numbers were calculated by subtracting baseline absorbance of the media followed by normalization to the 0 nM treated control wells.
# [2] = test system: EML4-ALK A549 NSCLC cells; assay: CCK-8 proliferation assay of parental and EML4-ALK A549 NSCLC cells; format: cell-based; settings: EML4-ALK A549 cells compared with parental (control) A549 cells, 4 days treatment, 0.98-500 nM
# Experimental: as §1, with “Parental cells and EML4-ALK A549 NSCLC cells (5,000 cells) were plated in a 96-well tissue culture plate. Cells” for “Cells”, “½” for “%”, “[…]” for “15.63”, “[…],” for “3.91 nM,”, “Incubating” for “incubating”, “hour” for “hour,”
smiles,measurement,setting,value
CC(=O)c1ccc2c(c1)[C@@H]1C=CC[C@@H]1[C@H](c1cc3c(cc1Br)OCO3)N2 [LNS8801],relative viability of Crizotinib-resistant cells,[1],able to effectively reduce viability; also recorded: has activity in the setting of ALK-inhibitor resistance
same,cell viability (relative viable cells),[2],effectively reduced EML4-ALK A549 cell viability over control A549 cells; also recorded: ALK+ NSCLC cells are more sensitive to LNS8801 than isogenic controls
